Measurements: the supplement of paper PMC9013687

What was measured:
Danio rerio embryo [1] = test: EC10 STC decrease; higher = less potent; details: exposure time: 25 h
Protocol: (§1)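 Zebrafish embryos (UFZ-OBI strain) were exposed from 2 hpf for 48 h (2 dpf) or 96 h (4 dpf) at 28 °C; spontaneous tail coiling was scored at 25 hpf. Morphological features from automated image analysis (FishInspector), heart rate and locomotor response were fitted with drc models. Quantal endpoints were dichotomised at 2.5 SD from controls and fitted with a log-logistic model; heart rate, pigmentation and STC were normalised to the replicate control mean. Betamethasone was tested as betamethasone dipropionate, diflorasone as diflorasone diacetate.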

Danio rerio embryo [2] = test: spontaneous tail coiling frequency (coils/min/embryo); higher = more spontaneous movement; details: 25 hpf
Protocol: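 Spontaneous tail coilings of zebrafish embryos exposed from 2 hpf were recorded at 24-25 hpf in 1-min videos and detected by a KNIME workflow from grey-value variance. Betamethasone was tested as the dipropionate, diflorasone as the diacetate.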

Danio rerio embryo [3] = test: EC20 Head size_Decrease; higher = less potent; details: exposure time: 2 dpf
Protocol: as §1

Danio rerio embryo [4] = test: EC20 Eye-jaw distance_Decrease; higher = less potent; details: exposure time: 4 dpf
Protocol: as §1

Danio rerio embryo [5] = test: EC10 Eye size_Decrease; higher = less potent; details: exposure time: 2 dpf
Protocol: as §1

Danio rerio embryo [6] = test: EC20 Lack of SB; higher = less potent; details: exposure time: 4 dpf
Protocol: as §1

Danio rerio embryo [7] = test: EC50 Eye size_Decrease; details: exposure time: 2 dpf
Protocol: as §1

Danio rerio embryo [8] = test: EC10 Curvature_Increase; higher = less potent
Protocol: as §1

Danio rerio embryo [9] = test: EC20 Pericard size_Increase; higher = less potent; details: exposure time: 2 dpf
Protocol: as §1

Danio rerio embryo [10] = test: EC10 Any effect; higher = less potent
Protocol: as §1

Danio rerio embryo [11] = test: EC50 Head trunk angle_Decrease; details: exposure time: 2 dpf
Protocol: as §1

Danio rerio embryo [12] = details: exposure time: 4 dpf
Protocol: as §1

Danio rerio embryo [13] = details: exposure time: 4 dpf; remark: listed apart in the source
Protocol: as §1

Danio rerio embryo [14] = test: EC50 Pericard size_Increase; details: exposure time: 2 dpf
Protocol: as §1

Danio rerio embryo [15] = test: EC10 Bladder size_Decrease; higher = less potent; details: exposure time: 4 dpf
Protocol: as §1

Danio rerio embryo [16] = test: EC10 Body length_Decrease; higher = less potent
Protocol: as §1

Danio rerio embryo [17] = test: EC50 Head size_Decrease; details: exposure time: 2 dpf
Protocol: as §1

Danio rerio embryo [18] = test: EC10 Pericard size_Increase; higher = less potent; details: exposure time: 2 dpf
Protocol: as §1

Danio rerio embryo [19] = test: EC50 Eye-jaw distance_Decrease; details: exposure time: 4 dpf
Protocol: as §1

Danio rerio embryo [20] = test: EC10 Head size_Decrease; higher = less potent; details: exposure time: 2 dpf
Protocol: as §1

Danio rerio embryo [21] = test: EC10 LMR dark; higher = less potent; details: exposure time: 4 dpf
Protocol: as §1

Danio rerio embryo [22] = test: EC10 LMR ligth decrease; higher = less potent; details: exposure time: 4 dpf
Protocol: as §1

CC1=C(/C=C/C(C)=C/C=C/C(C)=C/C(=O)O)C(C)(C)CCC1 [all-trans retinoic acid]
Details | EC10 Bladder size Decrease [nM] | EC10 Eye size Decrease [nM] | EC10 Head size Decrease [nM] | EC10 LMR dark [nM] | EC10 LMR ligth decrease [nM] | EC10 Pericard size Increase [nM] | EC10 STC decrease [nM] | EC20 Eye-jaw distance Decrease [nM] | EC20 Head size Decrease [nM] | EC20 Lack of SB [nM] | EC20 Pericard size Increase [nM] | EC50 Eye size Decrease [nM] | EC50 Eye-jaw distance Decrease [nM] | EC50 Head size Decrease [nM] | EC50 Head trunk angle Decrease [nM] | EC50 LMR dark [nM] | EC50 Lack of SB [nM] | EC50 Pericard size Increase [nM]
Danio rerio embryo [1] | – | – | – | – | – | – | 1.22 | – | – | – | – | – | – | – | – | – | – | –
Danio rerio embryo [3] | – | – | – | – | – | – | – | – | 26 | – | – | – | – | – | – | – | – | –
Danio rerio embryo [4] | – | – | – | – | – | – | – | 28 | – | – | – | – | – | – | – | – | – | –
Danio rerio embryo [5] | – | 34 | – | – | – | – | – | – | – | – | – | – | – | – | – | – | – | –
Danio rerio embryo [6] | – | – | – | – | – | – | – | – | – | 15 | – | – | – | – | – | – | – | –
Danio rerio embryo [7] | – | – | – | – | – | – | – | – | – | – | – | 38 | – | – | – | – | – | –
Danio rerio embryo [9] | – | – | – | – | – | – | – | – | – | – | 36 | – | – | – | – | – | – | –
Danio rerio embryo [11] | – | – | – | – | – | – | – | – | – | – | – | – | – | – | 11 | – | – | –
Danio rerio embryo [12] | – | – | – | – | – | – | – | – | – | – | – | – | – | – | – | – | 20 | –
Danio rerio embryo [13] | – | – | – | – | – | – | – | – | – | – | – | – | – | – | – | 36 | – | –
Danio rerio embryo [14] | – | – | – | – | – | – | – | – | – | – | – | – | – | – | – | – | – | 39
Danio rerio embryo [15] | 11 | – | – | – | – | – | – | – | – | – | – | – | – | – | – | – | – | –
Danio rerio embryo [17] | – | – | – | – | – | – | – | – | – | – | – | – | – | 42 | – | – | – | –
Danio rerio embryo [18] | – | – | – | – | – | 35 | – | – | – | – | – | – | – | – | – | – | – | –
Danio rerio embryo [19] | – | – | – | – | – | – | – | – | – | – | – | – | 33 | – | – | – | – | –
Danio rerio embryo [20] | – | – | 19 | – | – | – | – | – | – | – | – | – | – | – | – | – | – | –
Danio rerio embryo [21] | – | – | – | 16 | – | – | – | – | – | – | – | – | – | – | – | – | – | –
Danio rerio embryo [22] | – | – | – | – | 1.7 | – | – | – | – | – | – | – | – | – | – | – | – | –

Details | EC10 Any effect [nM] | EC10 Body length Decrease [nM] | EC10 Curvature Increase [nM] | spontaneous tail coiling frequency
Danio rerio embryo [2], 1 µM | – | – | – | 3.33
Danio rerio embryo [2], 6.25 µM | – | – | – | 2.34
Danio rerio embryo [2], 12.5 µM | – | – | – | 2.17
Danio rerio embryo [2], 25 µM | – | – | – | 2.1
Danio rerio embryo [2], 50 µM | – | – | – | 1.74
Danio rerio embryo [8], exposure time: 2 dpf | – | – | 7 | –
Danio rerio embryo [8], exposure time: 4 dpf | – | – | 6 | –
Danio rerio embryo [10], exposure time: 2 dpf | 8 | – | – | –
Danio rerio embryo [10], exposure time: 4 dpf | 6 | – | – | –
Danio rerio embryo [16], exposure time: 2 dpf | – | 31 | – | –
Danio rerio embryo [16], exposure time: 4 dpf | – | 23 | – | –
